# Patent publication US20250170224A1, “METHODS AND COMPOSITIONS FOR TREATING MICROGLIAL DYSFUNCTION AND IMPROVING METABOLIC DYSFUNCTION” (Ultimate Medicine AG, priority 2021, published 2025)
# System: microglia
# Experiment: CML given intraperitoneally or by oral gavage to young-adult and aged SPF mice; microglia analysed
# Format: in vivo, mouse
# Experimental: Specific pathogen-free (SPF) and germ-free (GF) housed C57BL/6 mice were analyzed at 6-10 weeks of age (young-adult) and 96-104 weeks of age (aged). Mice of the aged group in the nontargeted metabolomics analysis were 17-18 months old. Except for nontargeted metabolomics and microbiota profiling, where only male mice were used, all groups included mice from both sexes. Mice were housed under a 12-hour light/12-hour dark cycle and temperatures of 18-23° C. with 40-60% humidity, with food and water given ad libitum. To avoid cage effects, mice from at least three different cages per experimental group were analyzed. […] For modulation of CML in aged animals, 18-month-old SPF housed C57BL/6 mice were treated orally every third day for 10 weeks with vehicle (20% hydroxypropyl-p-cyclodextrin in 1× phosphate-buffered saline (PBS)), 10 mg kg^−1 ellagic acid (EA) or 3,000 U kg^−1 intestinal alkaline phosphatase (IAP). To assess in vivo intestinal permeability, tracer fluorescein isothiocyanate (FITC)-labeled dextran (4 kDa: Sigma-Aldrich) was used. Briefly, mice were deprived of food 4 hours before and both food and water 4 hours after oral gavage using 200 μl of 80 mg ml^−1 FITC-dextran. Blood was collected retro-orbitally after 4 hours and fluorescence intensity was measured on fluorescence plates using an excitation wavelength of 493 nm and an emission wavelength of 518 nm. To assess in vivo intestinal permeability to CML, mice were treated with […] CML (0.36 mM). Blood was collected retro-orbitally immediately before and 4 hours after treatment. CML translocated into the circulation was measured by liquid chromatography-mass spectrometry (LC-MS). All animal experiments were approved by the local administration in Germany (Regierungsprasidium Freiburg) and were performed in accordance with the respective national, federal, and institutional regulations and the guidelines of the Federation of European Laboratory Animal Science Associations.
# Brains were fixed in 4% PFA, dehydrated in 30% sucrose and embedded in Tissue-Tek OCT compound (Sakura Finetek). Fourteen micrometer-thick cryosections were obtained using a cryostat (SM2000R; Leica Biosystems). FFPE tissue from mouse and human brains was sectioned by a microtome to obtain 5-pm sections. Epitopes were unmasked by heat-induced antigen retrieval at pH 6. Sections were blocked with PBS containing 5% bovine serum albumin (BSA) and permeabilized with 0.5% Triton X-100 in blocking solution. The following primary antibodies were incubated overnight at 4° C.: rabbit anti-Iba-1 (1:500 dilution; WAKO); guinea pig anti-Iba-1 (1:1,000 dilution; Synaptic Systems); anti-iNOS (1:500 dilution; Thermo Fisher Scientific) or anti-CML (1:500; Abcam). Secondary antibodies (Alexa Fluor 488-, 568- or 647-conjugated, 1:500 dilution) were incubated for 2 hours at room temperature. For three dimensional (3D)-reconstruction of microglia, free-floating 30-pm cryosections from brain tissue were labeled for 48 hours with anti-Iba-1 (1:500 dilution) at 4° C., followed by Alexa Fluor 647-conjugated secondary antibody at a dilution of 1:500 overnight at 4° C. […] For 3D-reconstruction of microglia, images were analyzed using Imaris v.8.02 (Bitplane) with at least five cells per mouse. All other images were processed and analyzed with Photoshop CC 2015 (Adobe) or ImageJ v.1.53f (National Institutes of Health). […]
# [1] = aged mice, both intraperitoneal and oral gavage routes
compound,measurement,setting,value
"N[C@@H](CCCCNCC(=O)O)C(=O)O [CML, N^6-carboxymethyllysine]",cellular ROS in microglia,[1],significantly exacerbated the age-related increase in cellular ROS
same,metabolic function (cellular ATP) in microglia,[1],diminished metabolic function
same,effect of route of CML administration on percentage of CML+ microglia,"aged mice, i.p. versus oral gavage",no effect
same,"CML+ microglia in the cortex, intraperitoneal rather than oral gavage",young-adult mice,more CML^+ microglia in the cortex
same,effect on cellular ROS and metabolic function in microglia,"young-adult mice, i.p. versus oral gavage",only detectable after intraperitoneal administration
